# From publication PMC12501029, “Discovery of a CNS active GSK3 degrader using orthogonally reactive linker screening” (Nature Communications, 2025)
# “Also recorded” adds a separate entry of the source. Read-outs that look alike come from different tables or passages of the source.
# Columns and labels:
# [1] = target: T1, GSK3β (Mus musculus, UniProt Q9WV60); assay: KH1 (24) intravenous PK/PD study: GSK3β abundance in liver and brain (immunoblot); format: in vivo, female Balb/c mice; conditions: single 5 mg/kg i.v., 4 h, listed as KH1 (24)
# T1 construct: measured KH1 (24) levels in plasma and brain at 4 h, as well as GSK3β abundance in liver and brain; tissue Charles River Laboratories, UK; host or cells: liver and brain of female Balb/c mice
# T1 sequence (Q9WV60 whole entry): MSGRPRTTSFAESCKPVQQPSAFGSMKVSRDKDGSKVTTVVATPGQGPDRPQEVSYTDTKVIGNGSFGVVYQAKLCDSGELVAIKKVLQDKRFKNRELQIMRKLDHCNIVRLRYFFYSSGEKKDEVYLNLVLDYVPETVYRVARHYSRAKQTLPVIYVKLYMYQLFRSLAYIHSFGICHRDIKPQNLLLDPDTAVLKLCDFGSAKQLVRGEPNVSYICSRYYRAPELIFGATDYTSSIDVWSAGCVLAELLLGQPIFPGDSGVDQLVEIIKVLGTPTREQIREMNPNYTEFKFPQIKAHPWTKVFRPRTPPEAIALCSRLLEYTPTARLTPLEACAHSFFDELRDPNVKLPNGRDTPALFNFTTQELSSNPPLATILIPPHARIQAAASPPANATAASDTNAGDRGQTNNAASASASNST
# Procedure: A fraction of frozen brain and liver samples from control (CNT) and compound KH1 (24) treated animals were-transferred into Precellys 2 mL ceramic bead tubes containing 1 mL SDS lysis buffer (50 mM Tris-HCl pH 7.4, 150 mM NaCl, 1 mM EGTA, 270 mM sucrose, 1% (v/v) Triton-X100) supplemented with complete EDTA-free protease inhibitor cocktail (Roche) and PhosSTOP phosphatase inhibitor tablets (Roche) and placed immediately on ice. Then samples were placed in Precellys Evolution tissue homogeniser (Bertin Technologies) and tissues were lysed at 0 °C for 3 × 30 s of cycles at 6800 rpm, with 30 s pause in between cycles. Samples were centrifugated at 4 °C, 2000 × g for 60 s to get rid of bubbles and supernatant was transferred into new tubes. Lysates were cleared via centrifugation at 16,000 × g, 4 °C for 20 min. Protein concentration was determined by BCA assay (Thermo Scientific) and immunoblotting performed as previously described above. Immunoblots were quantified using ImageLab (Bio-Rad) and band intensities were normalised to loading controls; anti-GAPDH or Ponceau S staining and fold changes for protein of interest were plotted.
# For the PK/PD study for KH1 (24), three female Balb/c mice were given a bolus intravenous injection at a dose level of 5 mg/kg (5 mL/kg). […] The concentration of KH1 (24) in whole blood and brain tissue was determined via UPLC-MS/MS.
# [2] = KH1 (24) intravenous PK/PD study: blood and brain levels, observation; format: in vivo, female Balb/c mice
# Procedure: The intravenous formulation for KH1 (24) was prepared by dissolving the compound in DMSO. This was then diluted with PEG400, followed by dropwise addition of sterile water to form a complete solution. The resulting formulation consisted of 5% DMSO, 40% PEG400, and 55% water, and contained KH1 (24) at a concentration of 1.0 mg/mL.
# For the PK/PD study for KH1 (24), three female Balb/c mice were given a bolus intravenous injection at a dose level of 5 mg/kg (5 mL/kg). Animals were observed regularly after dose administration. At 4 h after the administration of KH1 (24), all animals were placed under terminal anaesthesia with isoflurane. Blood was collected via cardiac puncture and the brain and liver were removed. Two aliquots of 10 µL blood were each diluted into 90 µL of Milli-Q ultrapure water. All diluted blood samples were stored at −20 °C prior to bioanalysis. A portion of the brain was stored at −20 °C awaiting bioanalysis, while the remaining brain and liver tissues were snap-frozen in liquid nitrogen and stored at −80 °C awaiting biological investigation. The concentration of KH1 (24) in whole blood and brain tissue was determined via UPLC-MS/MS.
# Blood samples (10 µL) from study mice were diluted 1× with 90 µL of water immediately when the sample was taken. All calibration, quality control, blanks and double blank samples (all 100 µL volume) were mixed (vortexed) with 300 µL of LCMS grade acetonitrile to precipitate proteins.
# For study samples, a volume (30 µL) was mixed (vortexed) with a volume (90 µL) of acetonitrile to precipitate proteins. After protein precipitation, all samples were centrifuged to pellet the proteins. Study samples in Micronics tubes were centrifuged using a Beckman Coutler Allegra C-12R Centrifuge for 10 min at 3750 rpm. All other samples in Eppendorf tubes were centrifuged using a Sigma SciQuip 1–14 centrifuge for 10 min (14,800 rpm/16,163 × g). Supernatant from study samples (80 µL) and calibration samples, QCs, blanks, and double blanks (200 µL) were then transferred to HPLC glass vials containing Milli-Q water (40 µL or 100 µL, respectively), ready for LCMS analysis.
# [3] = tested on: HEK293 cells phosphoproteome; assay: Phosphoproteomics in HEK293 cells; format: cell-based, human; parameters: scale not given here; conditions: vs DMSO; phosphosite abundance difference; MOESM9
# Procedure: IMAC beads were prepared from Ni-NTA (nitrilotriacetic acid) superflow agarose beads. The nickel was stripped with 100 mM EDTA and incubated in an aqueous solution of 10 mM iron (III) chloride (FeCl3). Dried peptide fractions were reconstituted to a concentration of 0.5 μg/μL in 80% ACN/0.1% TFA. Peptide mixtures were enriched for phosphorylated peptides with 5 μL IMAC beads for 30 min with end-to-end rotation.
# Enriched IMAC beads were loaded on Empore C18 silica-packed stage tips. Stage tips were equilibrated with acetonitrile followed by 50% ACN/0.1% FA then 1% FA. The beads with enriched peptides were loaded onto C18 stage tips and washed with 80% ACN/0.1% TFA. Phosphorylated peptides were eluted from IMAC beads with 500 mM dibasic sodium phosphate, pH 7.0. These peptides were washed with 1% FA before elution using 50% acetonitrile in 0.1% FA. The peptides were then dried by SpeedVac and stored at −20 °C until mass spectrometry analysis. The dried phosphopeptides were reconstituted in 0.1% formic acid and analyzed on an Orbitrap Ascend mass spectrometer coupled to a Thermo Fisher Scientific Vanquish Neo UHPLC. […] The total run time was set to 155 min. A survey full scan MS (from m/z 350–1500) was acquired in the Orbitrap at a resolution of 120,000 at 200 m/z. The most intense ions with charge state ≥2 were isolated and fragmented using higher collision dissociation (HCD) fragmentation, with 30% normalised collision energy, and detected at a mass resolution of 50,000 at 200 m/z. The isolation window was set at 1.6. The phosphoproteomics raw data were searched using SEQUEST HT search engines with Proteome Discoverer 3.0 (Thermo Fisher Scientific). The following parameters were used for searches: Precursor mass tolerance 10 ppm, fragment mass tolerance 0.02, enzyme: trypsin, […], fixed modification: carbamidomethylation of cysteine residues and TMT of lysine and N-terminal, dynamic modification: oxidation of methionine and phosphorylation of serine, threonine and tyrosine. The data were filtered for 1% PSM and peptide level. A two-tailed t-test with 250 randomisations was performed in Perseus software (v1.6.15.0) to assess statistical significance between groups. The resulting data were visualised as a volcano plot using GraphPad Prism (v10.1.2).
# [4] = tested on: mouse liver proteome; assay: Whole proteome analysis of liver tissue from PK/PD study; format: in vivo, female Balb/c mice; conditions: 5 mg/kg i.v., 4 h; GSK3α could not be quantified
compound,measurement,setting,value
Cn1nc(N2CCC(=O)NC2=O)c2ccc(CN3CCN(Cc4ccc(-c5cn(-c6ccc(-c7cn8nccc(C(=O)Nc9cnccc9N9CCOCC9)c8n7)cc6)nn5)nc4)CC3)cc21 [compound 24],GSK3β abundance in liver,[1]; p < 0.0001 vs control,almost complete removal of GSK3β; also recorded: almost completely remove GSK3β
same,GSK3β abundance in brain,[1]; p = 0.0159 vs control,significant degradation of GSK3β; also recorded: partial degradation
same,adverse signs in vivo,[2]; 5 mg/kg IV study and the lower IV/PO study,no adverse signs
same,Kp at 4 h,"[2]; female, Balb/c, mouse, brain / whole blood, intravenous, 5 mg/kg i.v., 4 hours, read-out: Brain:Blood Ratio",0.1
same,concentration at 4 h,"[2]; female, Balb/c, mouse, brain, intravenous, 5 mg/kg i.v., 4 hours, read-out: Mean Brain Concentration",68 nM
same,concentration at 4 h,"[2]; female, Balb/c, mouse, whole blood, intravenous, 5 mg/kg i.v., 4 hours, read-out: Mean Blood Concentration",696 nM
same,"Difference, Q5PRF9 1xPhospho [S592(100)] SAMD4B",[3],0.2452
same,"Difference, Q8NEM7 1xPhospho [S437(100)] SUPT20H",[3],0.1561
same,"Difference, Q96KQ7 1xPhospho [S140(100)] EHMT2",[3],0.2159
same,"Difference, Q15398 1xPhospho [S725(100)] DLGAP5",[3],-0.5208
same,"Difference, Q15911 1xPhospho [S426(100)] ZFHX3",[3],-0.09567
same,proteome wide specificity in liver,[4],high levels of proteome wide specificity for GSK3β removal
